From PubChem BioAssay (NCI)
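Five compound concentrations were applied to cells in 96-well plates for 48 hours; endpoints were derived by simple linear interpolation of the resulting dose-response curve. Definition used: TGI = concentration required for complete inhibition of growth.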

How the values were obtained:
Assay in all cases: NCI tumour cell line growth inhibition, 48 h
[1] = tested on: EKVX NSCLC
[2] = tested on: HS 578T breast
[3] = tested on: OVCAR-8 ovarian
[4] = tested on: SW-620 colon
[5] = tested on: IGROV1 ovarian
[6] = tested on: OVCAR-3 ovarian
[7] = tested on: TK-10 renal
[8] = tested on: HOP-62 NSCLC
[9] = tested on: RXF 393 renal
[10] = tested on: COLO 205 colon
[11] = tested on: LOX IMVI melanoma
[12] = tested on: SK-MEL-2 melanoma
[13] = tested on: SF-268 CNS
[14] = tested on: DU-145 prostate
[15] = tested on: RPMI-8226 leukemia
[16] = tested on: NCI-H23 lung
[17] = tested on: OVCAR-4 ovarian
[18] = tested on: A549 NSCLC
[19] = tested on: MDA-N
[20] = tested on: SNB-19 CNS
[21] = tested on: SK-MEL-5 melanoma
[22] = tested on: MALME-3M melanoma
[23] = tested on: K-562 leukemia
[24] = tested on: NCI-H522 lung
[25] = tested on: SK-OV-3 ovarian
[26] = tested on: BT-549 breast
[27] = tested on: SF-539 CNS
[28] = tested on: MDA-MB-231 breast
[29] = tested on: CCRF-CEM leukemia
[30] = tested on: OVCAR-5 ovarian
[31] = tested on: PC-3 prostate
[32] = tested on: SF-295 CNS
[33] = tested on: NCI/ADR-RES ovarian
[34] = tested on: CAKI-1 renal
[35] = tested on: MCF7 breast
[36] = tested on: T-47D breast
[37] = tested on: MDA-MB-435
[38] = tested on: U251 CNS
[39] = tested on: HCT-15 colon
[40] = tested on: NCI-H226 lung
[41] = tested on: SK-MEL-28 melanoma
[42] = tested on: A498 renal
[43] = tested on: M14 melanoma
[44] = tested on: 786-0 renal
[45] = tested on: SR leukemia
[46] = tested on: KM12 colon
[47] = tested on: UACC-62 melanoma
[48] = tested on: ACHN renal
[49] = tested on: SN12C renal
[50] = tested on: HCC-2998 colon
[51] = tested on: UO-31 renal
[52] = tested on: NCI-H460 lung
[53] = tested on: HOP-92 NSCLC
[54] = tested on: MOLT-4 leukemia
[55] = tested on: SNB-75 CNS
[56] = tested on: HCT-116 colon
[57] = tested on: UACC-257 melanoma
[58] = tested on: HT29 colon
[59] = tested on: HL-60(TB) leukemia

Measured: TGI

CNc1ncnc2c1cnn2COCC(O)CO (stereo not given)
not listed: [59]
> 100 µM: all other assays above

NCCNCC1CCNCC1
not listed: [29] | [59]
> 100 µM: all other assays above

CSc1c(C#N)c(N)n(-c2ccc(C)cc2)c(=O)c1C#N
not listed: [8] | [32] | [48] | [53]
> 100 µM: all other assays above

NC(CC1=CS(=O)(=O)c2ccc(Cl)cc21)C(=O)O (stereo not given)
not listed: [29] | [50] | [51] | [59]
> 100 µM: all other assays above
